Where two headings read alike, the source gives them in different places.
Columns and labels:
[1] = tested on: K562 cells; assay: K562-based MTT cell viability assay; design: species or system human; conditions: 48 h, read-out: Activity (IC50, reduction of cell viability)
Description: (§1) Cell viability was assayed by measuring the mitochondrial reduction of the tetrazolium salt 3-(4,5-methyltiazol-2yl)-2,5diphenyl-tetrazolium bromide] (MTT) (Applichen; A2231,0010) (Mosmann T. J Immunol Methods. 1983 16; 65(1-2):55-63; Chuan Y-C et al 2010. Oncogene. 29 (10), 1531-1542. Cells were seeded in 96-well plates in medium supplemented with 10% FBS (Lonza Cat. No: 14-502F), 2 mM L-Glut (Lonza Cat. No: BE17-605E) and 100 U/ml PEST (Lonza Cat. No: DE17-605E) at a cell density of 5000-20000 cells/well. Cells were seeded at a density according to their exponential growth phase. Vehicle (0.05% DMSO) or drug were added to culture medium at the indicated concentrations (10 to 0.01 microM) during 48 h. Then, MTT (0.3 mg/ml) was added to cells following by incubation for 2-4 h at 37° C. in the dark. The medium was then discarded and the formazan precipitate was solubilized by addition of 20% SDS (Sigma; L-5750) in 0.02N HCl (Panreac; 131020.1611) for 12-16 h. The optical density was measured at 595 nm with the iMark Microplate Reader (BioRad, USA). Data was expressed as percent growth above the level in controls and the results in figures were plotted as means±SEM of each test point from 3 replicates.
(§2) Statistical analysis. The concentration of drug that provokes 50% reduction of cell viability (IC50) was determined by using non-linear regression analysis and data were fitted to a log concentration vs normalized response curve in GraphPad software v5 (San Diego, Calif.).

[2] = tested on: HEL cells; assay: HEL-based MTT cell viability assay; design: species or system human; conditions: 48 h, read-out: Activity (IC50, reduction of cell viability)
Description: as §1, §2

[3] = tested on: STAT5 transcription (pSPI-GLE1-luc) in HEK-GHR cells; assay: HEK-GHR STAT5 transcription assay (luciferase reporter, rhGH stimulated); assay type: cell-based, human; conditions: compound 45 minutes before 50 nM rhGH, six hours, read-out: Activity (IC50, reduction of luciferase activity)
From the text: Plasmids: The full-length GHR was subcloned into pcDNA1/ampicillin (Invitrogen) as described previously (Ross R J, Esposito N, Shen X Y, et al., Mol Endocrinol 1997, 11:265-73). The pSPI-GLE1 (serine protease inhibitor 2.1 GAS-like element 1)-luc reporter construct was generated by subcloning the Stat5-binding element from serine protease inhibitor gene together with a minimal thymidine kinase promoter into the pGL2 plasmid (Promega), which contains the firefly luciferase cDNA (Wood T J, Sliva D, Lobie P E, et al. J Biol Chem 1995, 270:9448-53).
Cell culture: HEK-GHR cell line was maintained in Dulbecco's Modified Eagle Medium (DMEM)/F12 supplemented with 10% fetal bovine serum (FBS) and 50 U/ml penicillin/50 U/ml streptomycin. The cells were maintained in a humidified incubator with 5% CO2 at 37° C. Cell culture reagents were obtained from PAA laboratories. The HEK-GHR cell line is a stable clone generated and kindly donated by Prof. Richard Ross (Clinical Sciences, Northern General Hospital, Sheffield, UK). Briefly, HEK-GHR cell line was generated in HEK 293 cells (human kidney embryonal cell line) by transfection with the calcium phosphate procedure of the GHR plasmid with pcDNA3/Neo (Invitrogen). Selection was made using G418 (400 ug/ml, Sigma) (Maamra M, Finidori J, Von Laue S, et al., J Biol Chem 1999, 274(21):14791-8).
Luciferase reporter assay: Transcription assays were performed in HEK-GHR. The HEK-GHR cells were co-transfected with Stat5 luciferase (pSPI-GLE1-luc) reporter vector together with a plasmid constitutively expressing beta-galactosidase by using Metafectene Pro as described by the manufacturer (Biontex Laboratories GmbH, Munich, Germany). Following transfection, HEK-GHR cells were serum-starved for 20 h. Cells were then treated with vehicle (0.1% DMSO) or the indicated compound for 45 minutes prior to the addition of 50 nM recombinant human Growth Hormone (rhGH) (Norditropin, Novo Nordisk) to the medium. Six hours following rhGH addition, cells were harvested with Passive Lysis Buffer (Promega), and levels of luciferase were measured using Luciferase Assay System as described by the manufacturer (Promega). The Galacto-Light Plus System (Applied Biosystems) was used to measure beta-galactosidase activity.
Statistical analysis. The concentration of drug that provokes 50% reduction of luciferase activity (IC50) was determined by using non-linear regression analysis and data were fitted to a log concentration vs normalized response curve in GraphPad software v5 (San Diego, Calif.).

[4] = tested on: JAK2; assay: JAK2 phosphorylation western blot assay; assay type: cell-based, human; conditions: 10 microM, HEL or K562 cells (table does not say which)
Description: (§3) The Human Erythroleukemia cell line HEL and the human Chronic Myeloid Leukemia cell line K562 were cultured in RPM I 1640 medium containing 10% fetal bovine serum (FBS) and 50 U/ml penicillin/50 U/ml streptomycin at 37° C. in a 5% CO2 humidified atmosphere to a density of 300.000 viable cells/mL in presence of WP1066 (positive control of phosphorylation inhibition) (Verstovsek et al., 2008) or CM-363 at concentrations of 1, 5 and 10 μM. Cell culture reagents were all obtained from BioWhittaker® (Lonza, Verniers, Belgium). Cell growth and viability was determined by propidium iodide (fluorescent dye) exclusion method using the Accuchip 4× Counting Kit and the ADAM automatic cell counter (Digital-Bio, NanoEntek, Ic., Washington St, Mass., USA).As a control of unspecific phosphorylation, some cells in each experiment were exposed to vehicle (negative control of phosphorylation inhibition) (0.1% DMSO).
(§4) For total protein extraction, cells were scraped with RIPA 1× lysis buffer (25 mM Tris-HCl pH 7.6, 150 mM NaCl, 1% NP-40, 1% sodium deoxycholate, 0.1% SDS, no. 89900, Thermo Scientific, Rockford, Ill., USA) supplemented with 1× protease and 1× phosphatase inhibitor cocktails (100× Halt™ Protease Inhibitor Cocktail, no. 87786 and 100× Halt Phosphatase Inhibitor Cocktail, no. 78420, both from Thermo Scientific, Rockford, Ill., USA). An aliquot of each extract was preserved for protein quantification by bicinchoninic acid assay (Pierce® BCA Protein Assay Kit, no. 23225, Thermo Scientific, Rockford, Ill., USA).
(§5) Proteins were solubilized in sample buffer containing 0.0625 M Tris-HCl, pH 6.8, 2.3% (wt/vol) SDS, 10% (vol/vol) glycerol, 5% (vol/vol) f3-mercaptoethanol, and 0.001% (wt/vol) bromophenol blue and boiled at 95° C. for 5 min. Equal amounts (50 μg) of each sample were electrophoresed on 8-10% sodium dodecyl sulfate-polyacrylamide gel electrophoresis (SDS-PAGE) and transferred to nitrocellulose membranes (iBlot® Gel Transfer Stacks, Nitrocellulose, no. IB4010-02, Invitrogen, Barcelona, Spain) as described previously (Fernandez, L, et al., Endocrinology, 13, 1815-1824, 1998; B. Guerra et al., J. Neurochem, 91, 99-109, 2004; B. Guerra et al., J. Appl. Physiol., 102, 1786-1792, 2007; B. Guerra et al., J. Appl. Physiol., 111, 715-725, 2011). The nitrocellulose membranes were then removed from the iBlot® Dry GelTransfer Device (no. IB1001EU, Invitrogen, Barcelona, Spain) and placed in a Ponceau S staining solution (0.5% Ponceau S and 1% glacial acetic acid in water) to verify equal loading of protein in the control and treated samples. After the membranes were stained for 5 min, they were rinsed for 2 min and examined. Equal loading of protein was verified, and the membranes were rinsed for an additional 10 min and immunoscreened. Membranes were blocked with 5% blotting grade blocker nonfat dry milk in Tris Buffered Saline with 0.05% Tween 20 (TBST; blotto-blocking buffer) for at least […]) at room temperature. They were washed thrice in TBS with 0.1% Tween 20 (TBST-0.1). Next, the membranes were incubated over night at 4° C. with the appropriate anti-phospho-antibodies (described below) all diluted (1:1000) in 1% bovine serum albumin (BSA)-1% blotto in TBST (BSA-blotto blocking buffer). […] Membranes were stripped of bound antibodies by incubation in stripping buffer (Restore™ Western Blot Stripping Buffer, no. 21059, Thermo Scientific, Rockford, Ill., USA) at room temperature for 30 min with agitation. Membranes were washed for 3×10 min in TBST-0.1, blocked with blotto-blocking buffer for at least 1 h and re-probed with the corresponding anti-total kinase antibodies (described below) all diluted (1:1000) in blotto-blocking buffer. […]

[5] = tested on: STAT5; assay: STAT5 phosphorylation western blot assay; assay type: cell-based, human; conditions: 10 microM, HEL or K562 cells (table does not say which)
Description: as §3, §4, §5

[6] = tested on: STAT5; conditions: K562 cells, 30-100 μM; cited from earlier work
[7] = tested on: K562 cells; conditions: cited from earlier work

SMILES	IC50 ([1]; Homo sapiens) [nM]	IC50 ([2]; Homo sapiens) [nM]	IC50 ([3]; Homo sapiens) [nM]	Activity (inhibition of JAK2 phosphorylation) [4]	Activity (inhibition of STAT5 phosphorylation) [5]	IC50 [1] [nM]	IC50 [2] [nM]	IC50 [3] [nM]	tyrosine phosphorylation of STAT5 [6]	cell cycle phases in flow cytometry experiments [7]
O=C1CCCC2=C1C(c1ccc(Cl)cc1)C1=C(N2)C(=O)c2ccccc2C1=O (stereo not shown) [Compound 1, 12-(4-chlorophenyl)-3,4-dihydrobenzo[b]acridine-1,6,11(2H,5H,12H)-trione]	< 10000	< 3000	< 5000							
N#Cc1ccc(C2C3=C(CCCC3=O)NC3=C2C(=O)c2ccccc2C3=O)cc1 (stereo not shown) [Compound 2, 4-(1,6,11-trioxo-1,2,3,4,5,6,11,12-octahydrobenzo[b]acridin-12-yl)benzonitrile]	< 1000	< 3000	< 1000							
CC1(C)CC(=O)C2=C(C1)OC1=C(C(=O)c3ccccc3C1=O)C2c1ccc(C#N)cc1 (stereo not shown) [Compound 3, 4-(3,3-dimethyl-1,6,11-trioxo-2,3,4,6,11,12-hexahydro-1H-benzo[b]xanthen-12-yl)benzonitrile]	< 1000	< 1000	< 1000	++ (++represents an inhibition at 10 microM > 50%)	+++ (+++represents an inhibition at 10 microM > 75%)					
CC1(C)CC(=O)C2=C(C1)NC1=C(C(=O)c3ccncc3C1=O)C2c1ccccc1 (stereo not shown) [Compound 13]				++ (++represents an inhibition at 10 microM > 50%)	+++ (+++represents an inhibition at 10 microM > 75%)	< 3000	< 3000	< 5000		
CC1(C)CC(=O)C2=C(C1)OC1=C(C(=O)c3ccccc3C1=O)C2c1ccc2c(c1)OCO2 (stereo not shown) [Compound 16, 12-(benzo[d][1,3]dioxol-5-yl)-3,3-dimethyl-3,4-dihydro-1H-benzo[b]xanthene-1,6,11(2H,12H)-trione]	< 3000	< 3000	< 5000							
O=C1CCCC2=C1C(c1ccc3c(c1)OCO3)C1=C(N2)C(=O)c2ccccc2C1=O (stereo not shown) [Compound 18]				++ (++represents an inhibition at 10 microM > 50%)	+ (+represents an inhibition at 10 microM > 50%)	< 10000				
O=C1CCCC2=C1C(c1ccccc1Cl)C1=C(N2)C(=O)c2ccccc2C1=O (stereo not shown) [Compound 22]				++ (++represents an inhibition at 10 microM > 50%)	+++ (+++represents an inhibition at 10 microM > 75%)		< 3000	< 5000		
O=C1CCCC2=C1C(c1ccoc1)C1=C(N2)C(=O)c2ccccc2C1=O (stereo not shown) [Compound 24]				+++ (+++represents an inhibition at 10 microM > 75%)	+ (+represents an inhibition at 10 microM > 50%)		< 3000	< 5000		
O=C1CCCC2=C1C(c1ccc(Br)cc1)C1=C(N2)C(=O)c2ccccc2C1=O (stereo not shown) [Compound 26, 12-(4-bromophenyl)-3,4-dihydrobenzo[b]acridine 1,6,11(2H,5H,12H)-trione]	< 1000	< 10000	< 5000		+ (+represents an inhibition at 10 microM > 50%)					
O=C1CCCC2=C1C(c1cccc(Br)c1)C1=C(N2)C(=O)c2ccccc2C1=O (stereo not shown) [Compound 27]				+ (+represents an inhibition at 10 microM > 30%)		< 10000	< 3000	< 5000		
COc1cc2ncnc(Nc3ccc(O)cc3)c2cc1OC [WHI-P131]									caused a reduction in tyrosine phosphorylation of STAT5	dose-dependent decrease in G1 and S phases and an increase in G2/M phases

From US20150175585A1, “FUSED QUINONIC COMPOUNDS” (CENTRO ATLANTICO DEL MEDICAMENTO S.A (CEAMED, S.A.), priority 2012, published 2015)
